{"source": "patent US20170269060A1", "about": "“Assays and Compounds to Treat Kidney Diseases” (Rush University Medical Center, priority 2014, published 2017)", "key": {"[1]": {"test_system": "SD rats", "assay": "PAN-induced nephropathy in rats", "type": "in vivo, rat", "settings": "PAN 150 mg/kg i.v., pyrintegrin 10 mg/kg daily for 14 days", "method": "The induction of nephropathy in male wild type SD rats (n=6 per group) by PAN injection was performed as described. (Reiser et al., J Clin Invest, 2004; Wei et al., Nature Medicine, 2008; Nakamura et al., Lab Invest, 1991.) Briefly, 5 week old male rats were intravenously injected with PAN (150 mg/kg, in water) and treatment with vehicle or pyrintegrin was started on the same day. Animals in the vehicle group were administered saline-based vehicle solution (3.3% DMSO and 5% Cremaphor EL) intraperitoneally daily for 14 days. Animals in the treatment group were treated with pyrintegrin (10 mg/kg, 3.3% DMSO and 5% Cremaphor EL) in the saline based solution daily for 14 days. Spot urine was collected from animals for measurement of albuminuria as mg albumin per mg creatinine. (Faul et al., Nat Med, 2008) Results are expressed as mean±SEM.\nLow-dose LPS decreases β1 integrin activation in podocytes and causes podocyte damage and proteinuria in mice. (Yu et al., N Engl J Med, 2013) Here, we used this model to test whether pyrintegrin, by preserving active β1 integrin in podocytes, is able to suppress podocyte FP effacement and the development of proteinuria in live animals. […] Given that pyrintegrin protected podocytes from PAN-induced damage in vitro, we also tested the efficacy of pyrintegrin in a PAN injury model."}, "[2]": {"test_system": "mouse podocytes", "assay": "Scratch, wound-healing assay (podocyte migration)", "type": "cell-based", "settings": "PAN or LPS treatment, cotreatment, 48 hours", "method": "The effect of identified novel compounds on podocyte migration was assessed using a classic scratch, wound-healing assay as described. (Mathieson, Nat Rev Nephrol, 2012.) Differentiated mouse podocytes per well were seeded overnight in type-I collagen coated wells of a 24 well plate. Each well was subsequently scratched using a sterile 200 μI pipette tip, washed and placed into fresh culture medium. Cells in wells were also treated with PAN, LPS, pyr or a combination, as described in the text. After 48 h, cells were fixed with 2% paraformaldehyde and stained with DAPI. Images of cells near scratched surfaces and their DAPI-stained nuclei were acquired using a 10× objective using a Zeiss Axio Observer D1 microscope (Carl Zeiss Group, Hartford, Conn.) and analyzed using ImageJ software (NIH). Images using transmitted light were also acquired at the beginning and the end of the experiment and were used to align images of pre- and post-treated cells for counting cells that had migrated into similar sized fields. The data shown represent the mean±SEM of three independent experiments.\nNext, we assessed the efficacy of this small molecule in a functional assay. In vitro, PAN- or LPS-mediated injury promotes directional migration and wound closure by podocytes in a scratch wound-healing assay."}, "[3]": {"test_system": "C57BL/6J mice", "assay": "LPS-induced proteinuria in mice", "type": "in vivo, mouse", "method": "The induction of proteinuria in female wild type C57BL/6J mice (n=6-13 per group) by LPS injection was performed as described. (Reiser et al., J Clin Invest, 2004; Yanagida-Asanuma et al., The American Journal of Pathology, 2007; Faul et al., Nat Med, 2008; Yu et al., The New England Journal of Medicine, 2013.) Briefly, 10 week old female mice were intraperitoneally injected with LPS (10 mg/kg, in saline). Control mice were injected with saline alone. Animals in the treatment groups were treated with vehicle or 10 mg/kg pyr (stock in DMSO) diluted in saline 2 h prior to the administration of LPS. Spot urine was collected from each group of animals for measurement of albuminuria as mg albumin per mg creatinine. (Faul et al., Nat Med, 2008) Results are expressed as mean±SEM. The mice were sacrificed and the efficacy of pyrintegrin was further analyzed by histochemical and immunofluorescence analyses.\nFor light microscopy, freshly harvested mouse kidney tissue was embedded in OCT, snap frozen in liquid nitrogen and stored at −80° C. Tissue sections were cut and fixed in −20° C. acetone before immunofluorescence staining. Sections were blocked at room temperature for 1 h and incubated with the primary antibodies against total β1 integrin (hamster anti-mouse, BioLegend), active β1 integrin (Lentner et al., PNAS, 1993.) (rat anti-mouse antibody 9EG7, BD Biosciences) and synaptopodin (polyclonal goat, SC-21537, Santa Cruz) at 4° C. overnight. Slides were incubated with appropriate fluorescently labeled secondary antibodies (Life Technologies, CA) and mounted with DAPI containing mounting solution (Vector Laboratories, Burlingame, Calif.). Fluorescence images were acquired using a Zeiss 700 LSM confocal microscope with a 20× objective and analyzed using the Zen software (Carl Zeiss Group, Hartford, Conn.). For transmission electron microscopy (TEM), tissues were fixed, embedded, sectioned, and stained as previously described. Nature Medicine, 2008.) Images were acquired using Zeiss SIGMA HD VP electron microscope. […]"}}}
{"smiles": "O=S(=O)(NCC1CC1)c1ccc(Nc2nccc(N3CCCc4cc(O)ccc43)n2)cc1", "note": "[Pyrintegrin]", "values": [{"measurement": "albuminuria caused by PAN-induced nephropathy", "setting": "[1]", "result": "significantly reduced albuminuria"}, {"measurement": "podocyte motility and wound closure", "setting": "[2]", "result": "significantly reduced podocyte motility and wound closure"}, {"measurement": "proteinuria, albumin per creatinine in urine", "setting": "[3]; C57BL/6 mice, LPS 10 mg/kg i.p., pyrintegrin 10 mg/kg, 24 hours", "result": "0.668±0.074 mg albumin per 1 mg creatinine"}, {"measurement": "active β1 integrin levels in glomeruli (antibody 9EG7)", "setting": "[3]; mice, 24 hours after LPS, confocal microscopy", "result": "significant protection of the active β1 levels"}, {"measurement": "protection from LPS-induced podocyte FP effacement", "setting": "[3]; mice, pyrintegrin 10 mg/kg, electron microscopy", "result": "significant protection"}]}
